One may read the IC50 as the midpoint of a concentration-inhibition curve.

One experiment deals with Plasmodium falciparum. Briefly: Antiplasmodial activity against chloroquine-resistant Plasmodium falciparum FcB1/Colombia infected in human red blood cells assessed as reduction in [3H]-hypoxanthine incorporation measured after 24 hrs liquid scintillation counting method. The format is functional, organism-based, RBC. To be noted: Erythrocyte.
In a further experiment the test system is MRC5. Briefly: Cytotoxicity against human MRC5 cells assessed as growth inhibition measured after 72 hrs by MTS assay. The format is cell-based. To be noted: MRC5, 72 h.

In the case of `CC[C@H]1N[C@H]2C[C@@]3(C(=O)N(OC)c4ccccc43)[C@@H]3C[C@@H]1[C@@H]2CO3`, the IC50 in the experiment on Plasmodium falciparum is 42.5 µM; in the experiment on MRC5, over 50 µM.
On to `CC[C@H]1N[C@H]2C[C@@]3(C(=O)N(OC)c4cc(OC)ccc43)[C@@H]3C[C@@H]1[C@@H]2CO3`, for which the values for the IC50 with Plasmodium falciparum and in the experiment on MRC5 were 59.5 µM and over 50 µM, respectively.
`C/C=C1/CN(C)[C@@H]2Cc3c([nH]c4ccccc34)[C@@H](S)C[C@H]1[C@H]2C(=O)OC`: the values for the IC50 in the experiment on Plasmodium falciparum and in the experiment on MRC5 were 1.05 µM and over 50 µM, respectively.
Turning to `C/C=C1/CN(C)[C@@H]2Cc3c([nH]c4ccccc34)C(=O)C[C@H]1[C@H]2C(=O)OC`, the IC50 in the experiment on Plasmodium falciparum is 22.5 µM; with MRC5 it was over 50 µM.

(Values after ChEMBL document CHEMBL4837190, “Targeted Isolation of Hemitheion from Mostuea brunonis, a Proposed Biosynthetic Intermediate of Theionbrunonines” (J Nat Prod, 2021).)
